Assay results taken from patent US9328124B2, “BACE inhibitors” (Eli Lilly and Company, priority 2012, dated 2016).
Structures can show the parent of a compound that is named as a salt. Where two headings read alike, the source gives them in different places.

What was measured:
[1] = biological target: BACE (the beta-secretase enzyme) (Mus musculus (Mouse), UniProt P56818); experiment: In vivo inhibition of beta-secretase in PDAPP mice (brain Abeta 1-x); conditions: 3 hours, young female PDAPP mice, vs vehicle
Experimental: Several animal models, including mouse, rat, guinea pig, dog, and monkey, may be used to screen for inhibition of beta-secretase activity in vivo following compound treatment Animals used in this invention were transgenic PDAPP mice as described in Games et al., Nature 373, 523-527 (1995), which have been useful to analyze in vivo inhibition of Abeta production in the presence of inhibitory compounds. Two month old PDAPP mice are administered compound formulated in N-methylpyrolidone (Pharmasolve®) in water. Three hours following the administration of compound, animals are sacrificed, and brains are removed for analysis of Abeta fragments. (See Dovey, et al., Journal of Neurochemistry, 76, 173-181 (2001); and Johnson-Wood, et al., Proc. Natl. Acad. Sci. USA, 94, 1550-1555 (1997)).
For standard in vivo pharmacology studies, animals are dosed with various concentrations of compound and compared to a vehicle-treated control group dosed at the same time. At the end of the test period, animals are sacrificed and brain tissues are analyzed for the presence of Abeta peptides by specific sandwich ELISA assays. “Abeta 1-x peptide” as used herein refers to the sum of Abeta species that begin with residue 1 and end with a C-terminus greater than residue 28. This detects the majority of Abeta species and is often called “total Abeta”.
Significant and dose-responsive reduction of total Abeta after oral administration of the compound of Example 8 is consistent with a mechanism of BACE (the beta-secretase enzyme) inhibition in vivo. […] As such, compounds of the present invention are efficacious inhibitors of BACE.

[2] = biological target: native, endogenous murine BACE1 (Mus musculus (Mouse), UniProt P56818); experiment: PDAPP primary neuronal assay (Abeta ELISA); assay type: cell-based; conditions: primary cortical neurons from PDAPP embryos
Experimental: For in vitro enzymatic and cellular assays, test compounds are prepared in DMSO to make up a 10 mM stock solution. […] A confirmatory whole cell assay is also run in primary neuronal cultures generated from PDAPP transgenic embryonic mice. […] After 2 days in vitro, culture media is replaced with serum free DMEM/F12 (1:1) containing B27 supplement and 2 μM (final) of Ara-C (Sigma, C1768). At day 5 in vitro, neurons are incubated at 37° C. for 24 h in the presence/absence of inhibitors (diluted in DMSO) at the desired concentration. At the end of the incubation, conditioned media are analyzed for evidence of beta-secretase activity, for example, by analysis of Abeta peptides. […] Both Abeta 1-40 and Abeta 1-42 ELISAs use biotinylated 3D6 as the reporting antibody. The concentration of Abeta released in the conditioned media following the compound treatment corresponds to the activity of BACE1 under such conditions.

human BACE1(1-460):Fc = human BACE1(1-460):Fc (Homo sapiens (Human), UniProt P56817); experiment: BACE1 FRET assay; assay type: biochemical; conditions: purified recombinant human BACE1, FRET; Mean ± SEM
Experimental: For in vitro enzymatic and cellular assays, test compounds are prepared in DMSO to make up a 10 mM stock solution.
This fusion protein of BACE1(1-460) and human Fc, named huBACE1:Fc, is constructed into the pJB02 vector. Human BACE1(1-460):Fc (huBACE1:Fc) is transiently expressed in HEK293 cells. 250 μg cDNA of each construct is mixed with Fugene 6 and added to 1 liter HEK293 cells. Four days after the transfection, conditioned media are harvested for purification. huBACE1:Fc is purified by Protein A chromatography. The enzyme is stored at −80° C. in small aliquots.
Serial dilutions of test compounds are prepared as described above. Compounds are further diluted 20× in KH2PO4 buffer. Ten μL of each dilution is added to each well on row A to H of a corresponding low protein binding black plate containing the reaction mixture (25 μL of 50 mM KH2PO4, pH 4.6, 1 mM TRITON® X-100, 1 mg/mL Bovine Serum Albumin, and 15 μM of FRET substrate) (See Yang, et. al., J. Neurochemistry, 91(6) 1249-59 (2004)). The content is mixed well on a plate shaker for 10 minutes. […] The RFU of the mixture at time 0 is recorded at excitation wavelength 355 nm and emission wavelength 460 nm, after brief mixing on a plate shaker. […] The RFU at the end of incubation is recorded with the same excitation and emission settings used at time 0. […]

[3] = biological target: native endogenous human BACE1 (Homo sapiens (Human), UniProt P56817); experiment: HEK293Swe whole cell assay (Abeta ELISA); assay type: cell-based; conditions: HEK293/APP751sw cells
Experimental: For in vitro enzymatic and cellular assays, test compounds are prepared in DMSO to make up a 10 mM stock solution. The stock solution is serially diluted in DMSO to obtain a ten-point dilution curve with final compound concentrations ranging from […] to 1 nM in a 96-well round-bottom plate before conducting the in vitro enzymatic and whole cell assays. […]
Cells (HEK293/APP751sw at 3.5×10^4 cells/well, containing 200 μL culture media, DMEM containing 10% FBS) are incubated at 37° C. for 4 to 24 h in the presence/absence of inhibitors (diluted in DMSO) at the desired concentration. At the end of the incubation, conditioned media are analyzed for evidence of beta-secretase activity, for example, by analysis of Abeta peptides. Total Abeta peptides (Abeta 1-x) are measured by a sandwich ELISA, using monoclonal 266 as a capture antibody and biotinylated 3D6 as reporting antibody. Alternatively, Abeta 1-40 and Abeta 1-42 peptides are measured by a sandwich ELISA, using monoclonal 2G3 as a capture antibody for Abeta 1-40, and monoclonal 21F12 as a capture antibody for Abeta 1-42. […]

[4] = Abeta 1-40, read-out: PDAPP Neuron A-beta (1-40) ELISA IC50
[5] = Abeta 1-42, read-out: PDAPP Neuron A-beta (1-42) ELISA IC50

BACE (the beta-secretase enzyme), sequence (P56818 46-501): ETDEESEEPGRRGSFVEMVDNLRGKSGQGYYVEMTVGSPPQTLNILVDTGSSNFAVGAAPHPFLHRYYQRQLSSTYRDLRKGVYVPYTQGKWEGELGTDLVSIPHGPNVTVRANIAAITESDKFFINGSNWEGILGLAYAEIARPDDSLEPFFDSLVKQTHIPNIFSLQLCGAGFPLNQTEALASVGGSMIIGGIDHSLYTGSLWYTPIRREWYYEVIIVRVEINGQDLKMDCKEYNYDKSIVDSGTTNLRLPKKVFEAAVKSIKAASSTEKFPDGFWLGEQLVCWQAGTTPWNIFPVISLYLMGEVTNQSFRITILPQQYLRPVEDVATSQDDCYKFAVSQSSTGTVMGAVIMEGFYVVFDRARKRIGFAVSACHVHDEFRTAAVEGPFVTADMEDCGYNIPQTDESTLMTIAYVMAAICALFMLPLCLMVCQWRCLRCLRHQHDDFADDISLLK
native, endogenous murine BACE1, sequence (P56818 46-501): as above
human BACE1(1-460):Fc, sequence (P56817 22-460): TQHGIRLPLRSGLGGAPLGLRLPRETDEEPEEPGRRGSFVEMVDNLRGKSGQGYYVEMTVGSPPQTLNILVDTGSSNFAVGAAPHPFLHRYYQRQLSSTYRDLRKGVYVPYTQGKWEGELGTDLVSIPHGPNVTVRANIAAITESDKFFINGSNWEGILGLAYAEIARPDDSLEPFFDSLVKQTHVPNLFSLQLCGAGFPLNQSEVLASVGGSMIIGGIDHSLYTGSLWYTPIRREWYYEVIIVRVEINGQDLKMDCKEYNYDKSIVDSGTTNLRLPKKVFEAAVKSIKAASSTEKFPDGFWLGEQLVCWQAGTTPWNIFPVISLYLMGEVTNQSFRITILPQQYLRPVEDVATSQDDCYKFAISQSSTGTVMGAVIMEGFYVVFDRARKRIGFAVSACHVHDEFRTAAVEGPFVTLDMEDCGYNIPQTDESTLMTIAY
native endogenous human BACE1, sequence (P56817 46-501): as the sequence (P56818 46-501) above, with S6P, I162V, I165L, T180S, A182V, V340I, A393L, H443Q counted along it

IC50 [2, 4] [nM]	IC50 [2, 5] [nM]	SMILES	Abeta 1-x peptide levels reduced in brain cortex ([1]; 10 mg/kg oral dose)	Abeta 1-x peptide levels reduced in brain hippocampus ([1]; 10 mg/kg oral dose)	Abeta 1-x peptide levels reduced in brain cortex ([1]; 30 mg/kg oral dose) [%]	Abeta 1-x peptide levels reduced in brain hippocampus ([1]; 30 mg/kg oral dose) [%]	IC50 (human BACE1(1-460):Fc) [nM]	IC50 ([3]; Abeta 1-40, read-out: HEK 293 Swe A-beta (1-40) ELISA IC50) [nM]	IC50 ([3]; Abeta 1-42, read-out: HEK 293 Swe A-beta (1-42) ELISA IC50) [nM]
109	83.1	CC(C)(O)c1nc(N2C[C@H]3CSC(N)=N[C@@]3(c3ccc(F)cn3)C2)ncc1F [Example 12, 2-[2-[(4aR,7aR)-2-Amino-7a-(5-fluoro-2-pyridyl)-4,4a,5,7-tetrahydropyrrolo[3,4-d][1,3]thiazin-6-yl]-5-fluoro-pyrimidin-4-yl]propan-2-ol hydrochloride]	–	–	–	–	–	–	–
98.2	80.1	CC(C)(O)c1nc(N2C[C@H]3CSC(N)=N[C@@]3(c3cccnc3)C2)ncc1F [Example 15, 2-[2-[(4aR,7aS)-2-Amino-7a-(3-pyridyl)-4,4a,5,7-tetrahydropyrrolo[3,4-d][1,3]thiazin-6-yl]-5-fluoro-pyrimidin-4-yl]propan-2-ol hydrochloride]	–	–	–	–	93.5	–	–

SMILES	IC50 [2, 4] [nM]	IC50 [2, 5] [nM]	Abeta 1-x peptide levels reduced in brain cortex ([1]; 10 mg/kg oral dose)	Abeta 1-x peptide levels reduced in brain hippocampus ([1]; 10 mg/kg oral dose)	Abeta 1-x peptide levels reduced in brain cortex ([1]; 30 mg/kg oral dose) [%]	Abeta 1-x peptide levels reduced in brain hippocampus ([1]; 30 mg/kg oral dose) [%]	IC50 (human BACE1(1-460):Fc) [nM]	IC50 ([3]; Abeta 1-40, read-out: HEK 293 Swe A-beta (1-40) ELISA IC50) [nM]	IC50 ([3]; Abeta 1-42, read-out: HEK 293 Swe A-beta (1-42) ELISA IC50) [nM]
CC(C)(O)c1nc(N2C[C@H]3CSC(N)=N[C@@]3(c3cnccn3)C2)ncc1F.Cl [Example 8, 2-[2-[(4aR,7aR)-2-Amino-7a-pyrazin-2-yl-4,4a,5,7-tetrahydropyrrolo[3,4-d][1,3]thiazin-6-yl]-5-fluoro-pyrimidin-4-yl]propan-2-ol hydrochloride]	455	412	approximately 23%	approximately 19%	~53	~46	105	242	395
